Data on one molecule can be found in ChEMBL document CHEMBL5370603, “N-(2-Aminophenyl)-benzamide Inhibitors of Class I HDAC Enzymes with Antiproliferative and Antifibrotic Activity” (J Med Chem, 2023).

The source made the active and inactive calls. No cut-off for these calls is given here.

Chain of Histone deacetylase 1 (Q13547 whole entry): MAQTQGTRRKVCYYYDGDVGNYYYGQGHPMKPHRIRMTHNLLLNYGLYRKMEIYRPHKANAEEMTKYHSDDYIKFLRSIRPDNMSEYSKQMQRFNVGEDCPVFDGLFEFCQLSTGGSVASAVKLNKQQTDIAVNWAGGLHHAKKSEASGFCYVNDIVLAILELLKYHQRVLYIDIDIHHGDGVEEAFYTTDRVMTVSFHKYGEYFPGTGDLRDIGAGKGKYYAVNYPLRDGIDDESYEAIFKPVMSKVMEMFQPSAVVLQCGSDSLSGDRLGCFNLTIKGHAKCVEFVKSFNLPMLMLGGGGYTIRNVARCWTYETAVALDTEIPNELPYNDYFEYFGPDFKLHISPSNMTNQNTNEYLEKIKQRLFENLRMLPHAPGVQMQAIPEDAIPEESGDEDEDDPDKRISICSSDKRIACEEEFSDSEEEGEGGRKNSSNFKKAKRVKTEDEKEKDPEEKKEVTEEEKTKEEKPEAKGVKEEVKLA
Chain of Histone deacetylase 3 (O15379 whole entry): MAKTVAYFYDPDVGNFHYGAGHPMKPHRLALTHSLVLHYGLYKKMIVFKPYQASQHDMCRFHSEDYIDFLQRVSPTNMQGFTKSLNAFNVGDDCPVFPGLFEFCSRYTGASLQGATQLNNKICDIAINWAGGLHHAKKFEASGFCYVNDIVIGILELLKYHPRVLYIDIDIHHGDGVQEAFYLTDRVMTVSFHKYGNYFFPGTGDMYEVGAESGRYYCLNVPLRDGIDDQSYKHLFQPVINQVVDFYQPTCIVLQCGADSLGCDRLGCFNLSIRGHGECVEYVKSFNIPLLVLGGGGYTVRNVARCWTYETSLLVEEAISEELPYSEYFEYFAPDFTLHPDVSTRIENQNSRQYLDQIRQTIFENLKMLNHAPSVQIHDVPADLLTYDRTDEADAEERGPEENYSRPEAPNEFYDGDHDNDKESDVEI
Chain of Histone deacetylase 2 (Q92769 whole entry): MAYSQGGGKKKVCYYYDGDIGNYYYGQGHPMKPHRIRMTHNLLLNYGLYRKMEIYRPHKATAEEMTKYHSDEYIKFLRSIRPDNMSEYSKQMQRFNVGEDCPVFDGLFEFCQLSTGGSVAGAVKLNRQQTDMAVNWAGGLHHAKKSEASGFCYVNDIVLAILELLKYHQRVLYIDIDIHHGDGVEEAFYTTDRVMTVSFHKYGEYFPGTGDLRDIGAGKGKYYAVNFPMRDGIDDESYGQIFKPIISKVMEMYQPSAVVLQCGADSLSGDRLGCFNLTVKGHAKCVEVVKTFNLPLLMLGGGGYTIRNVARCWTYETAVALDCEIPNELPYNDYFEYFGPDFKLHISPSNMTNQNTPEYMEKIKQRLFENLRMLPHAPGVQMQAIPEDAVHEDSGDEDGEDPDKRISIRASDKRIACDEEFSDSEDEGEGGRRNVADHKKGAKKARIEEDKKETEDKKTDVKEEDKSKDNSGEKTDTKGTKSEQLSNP

One test addresses Histone deacetylase 1 (Homo sapiens, UniProt Q13547). Briefly: Inhibition of human recombinant HDAC1 using Ac-Leu-Gly-Lys(Ac)-AMC as substrate preincubated with enzyme for 30 mins followed by substrate addition and measured after 90 mins by fluorescence based analysis.
Settings: not given
As for `Nc1ccccc1NC(=O)c1ccc(COc2ccc(CNC(=O)[C@H]3CCC(=O)N3Cc3ccccc3)cc2)cc1`, the 50% inhibitory concentration (IC50) amounted to 92 nM.

A further test concerns the target Histone deacetylase 2 (Homo sapiens, UniProt Q92769). The test can be described thus: Inhibition of human recombinant HDAC2 using Ac-Leu-Gly-Lys(Ac)-AMC as substrate preincubated with enzyme for 30 mins followed by substrate addition and measured after 90 mins by fluorescence based analysis.
Settings: not given
With `Nc1ccccc1NC(=O)c1ccc(COc2ccc(CNC(=O)[C@H]3CCC(=O)N3Cc3ccccc3)cc2)cc1`, the IC50 turned out to be 143 nM.

Another test addresses Histone deacetylase 3 (Homo sapiens, UniProt O15379). Briefly: Inhibition of human recombinant HDAC3 using Ac-Leu-Gly-Lys(Ac)-AMC as substrate preincubated with enzyme for 30 mins followed by substrate addition and measured after 90 mins by fluorescence based analysis.
Settings: not given
Consider `Nc1ccccc1NC(=O)c1ccc(COc2ccc(CNC(=O)[C@H]3CCC(=O)N3Cc3ccccc3)cc2)cc1`, for which the IC50 worked out at 431 nM.

The target in the next test is T1, Protein deacetylase HDAC6 (Homo sapiens, UniProt Q9UBN7).
T1 sequence (Q9UBN7 whole entry): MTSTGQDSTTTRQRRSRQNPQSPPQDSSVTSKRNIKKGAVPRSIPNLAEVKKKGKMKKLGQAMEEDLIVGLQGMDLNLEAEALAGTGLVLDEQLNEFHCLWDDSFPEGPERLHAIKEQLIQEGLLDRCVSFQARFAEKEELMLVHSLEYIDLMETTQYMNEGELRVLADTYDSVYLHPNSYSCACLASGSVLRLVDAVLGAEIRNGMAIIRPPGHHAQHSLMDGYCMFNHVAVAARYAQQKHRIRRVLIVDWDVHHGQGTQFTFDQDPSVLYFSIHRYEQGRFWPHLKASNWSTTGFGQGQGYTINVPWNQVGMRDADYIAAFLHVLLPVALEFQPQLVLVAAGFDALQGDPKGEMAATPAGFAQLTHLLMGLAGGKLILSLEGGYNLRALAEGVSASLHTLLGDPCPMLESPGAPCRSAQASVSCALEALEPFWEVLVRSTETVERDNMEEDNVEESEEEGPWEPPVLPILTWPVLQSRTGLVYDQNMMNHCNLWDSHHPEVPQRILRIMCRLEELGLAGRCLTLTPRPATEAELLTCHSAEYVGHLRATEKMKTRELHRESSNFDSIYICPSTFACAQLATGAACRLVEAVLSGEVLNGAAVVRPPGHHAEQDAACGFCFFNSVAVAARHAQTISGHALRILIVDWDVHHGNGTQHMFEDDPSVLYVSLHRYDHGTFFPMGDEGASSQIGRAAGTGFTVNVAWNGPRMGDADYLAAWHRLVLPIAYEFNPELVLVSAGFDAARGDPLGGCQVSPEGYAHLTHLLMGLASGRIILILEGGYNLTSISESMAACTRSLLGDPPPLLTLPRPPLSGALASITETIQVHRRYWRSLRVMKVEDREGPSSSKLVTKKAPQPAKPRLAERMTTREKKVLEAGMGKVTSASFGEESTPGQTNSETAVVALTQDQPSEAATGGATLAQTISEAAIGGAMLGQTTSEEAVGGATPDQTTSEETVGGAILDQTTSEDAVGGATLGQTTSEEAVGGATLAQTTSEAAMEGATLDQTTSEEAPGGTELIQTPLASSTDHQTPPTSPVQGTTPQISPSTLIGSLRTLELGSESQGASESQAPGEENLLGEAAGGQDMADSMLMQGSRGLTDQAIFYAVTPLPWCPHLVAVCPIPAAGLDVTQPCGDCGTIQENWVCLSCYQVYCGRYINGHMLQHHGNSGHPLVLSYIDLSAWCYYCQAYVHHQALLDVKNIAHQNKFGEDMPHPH
Briefly: Inhibition of C-terminal FLAG-tagged human recombinant full length HDAC6 expressed in baculovirus expression system using Boc-Lys(Ac)-AMC as substrate preincubated with enzyme for 15 mins followed by substrate addition and measured after 60 mins by fluorescence based analysis.
Settings: not given
On to `Nc1ccccc1NC(=O)c1ccc(COc2ccc(CNC(=O)[C@H]3CCC(=O)N3Cc3ccccc3)cc2)cc1`, for which the IC50 was more than 100000 nM.

For a further test, the target named is T2, Histone deacetylase 8 (Homo sapiens, UniProt Q9BY41).
T2 sequence (Q9BY41 whole entry): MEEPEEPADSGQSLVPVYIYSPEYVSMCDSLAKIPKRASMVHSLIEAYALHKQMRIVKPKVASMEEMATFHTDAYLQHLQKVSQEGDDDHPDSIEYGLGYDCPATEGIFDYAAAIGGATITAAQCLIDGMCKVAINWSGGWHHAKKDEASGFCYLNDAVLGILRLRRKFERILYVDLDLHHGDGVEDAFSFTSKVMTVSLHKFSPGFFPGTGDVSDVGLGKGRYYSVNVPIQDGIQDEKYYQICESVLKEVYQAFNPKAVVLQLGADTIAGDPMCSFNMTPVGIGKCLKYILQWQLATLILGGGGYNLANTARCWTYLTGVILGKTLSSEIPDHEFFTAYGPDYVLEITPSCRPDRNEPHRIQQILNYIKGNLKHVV
The test can be described thus: Inhibition of C-terminal His-tagged human recombinant full length HDAC8 (1 to 377 residues) expressed in Sf9 cells using Ac-Leu-Gly-Lys(trifluoroAc)-AMC as substrate preincubated with enzyme for 30 mins followed by substrate addition and measured after 90 mins by fluorescence based analysis.
Settings: not given
For `Nc1ccccc1NC(=O)c1ccc(COc2ccc(CNC(=O)[C@H]3CCC(=O)N3Cc3ccccc3)cc2)cc1`, the half-inhibitory concentration (IC50) was more than 10000 nM.

The target of the next test is Histone deacetylase 4 (Homo sapiens, UniProt P56524). Briefly: Inhibition of N-terminal GST-tagged/C-terminal His tagged human recombinant HDAC4 (627 to 1084 residues) expressed in baculovirus-infected Sf9 cells using Ac-Leu-Gly-Lys(trifluoroAc)-AMC as substrate preincubated with enzyme for 15 mins followed by substrate addition and measured after 60 mins by fluorescence based analysis.
Chain of Histone deacetylase 4 (P56524 whole entry, the tested form may be a part): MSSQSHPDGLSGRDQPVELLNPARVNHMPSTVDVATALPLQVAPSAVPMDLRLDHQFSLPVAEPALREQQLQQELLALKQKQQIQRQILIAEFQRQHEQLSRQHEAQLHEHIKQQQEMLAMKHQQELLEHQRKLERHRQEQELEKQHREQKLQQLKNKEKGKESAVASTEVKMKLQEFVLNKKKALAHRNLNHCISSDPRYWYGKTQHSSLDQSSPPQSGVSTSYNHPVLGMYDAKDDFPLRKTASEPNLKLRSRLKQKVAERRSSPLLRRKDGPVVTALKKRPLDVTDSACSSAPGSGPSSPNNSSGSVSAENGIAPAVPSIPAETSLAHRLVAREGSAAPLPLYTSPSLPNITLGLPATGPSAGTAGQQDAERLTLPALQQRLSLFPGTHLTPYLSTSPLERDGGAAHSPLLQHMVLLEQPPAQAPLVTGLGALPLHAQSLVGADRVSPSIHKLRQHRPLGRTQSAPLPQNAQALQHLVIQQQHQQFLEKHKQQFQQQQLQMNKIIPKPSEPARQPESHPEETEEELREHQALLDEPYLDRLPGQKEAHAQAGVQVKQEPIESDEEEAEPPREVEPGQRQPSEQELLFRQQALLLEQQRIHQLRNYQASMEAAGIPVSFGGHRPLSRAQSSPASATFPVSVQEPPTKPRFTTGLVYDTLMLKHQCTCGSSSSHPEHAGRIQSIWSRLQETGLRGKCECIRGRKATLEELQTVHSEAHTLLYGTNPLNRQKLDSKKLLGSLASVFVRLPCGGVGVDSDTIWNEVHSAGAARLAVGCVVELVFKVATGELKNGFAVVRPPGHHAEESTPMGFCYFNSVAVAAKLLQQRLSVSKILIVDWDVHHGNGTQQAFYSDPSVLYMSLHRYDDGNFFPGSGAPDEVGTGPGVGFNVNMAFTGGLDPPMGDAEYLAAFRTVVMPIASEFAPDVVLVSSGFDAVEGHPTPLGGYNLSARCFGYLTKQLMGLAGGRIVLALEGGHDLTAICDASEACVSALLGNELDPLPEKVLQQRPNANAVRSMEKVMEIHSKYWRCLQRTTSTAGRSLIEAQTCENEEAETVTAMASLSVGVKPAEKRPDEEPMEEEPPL
Settings: not given
For `Nc1ccccc1NC(=O)c1ccc(COc2ccc(CNC(=O)[C@H]3CCC(=O)N3Cc3ccccc3)cc2)cc1`, the half-inhibitory concentration (IC50) is more than 100000 nM.

A further test concerns A549. The test can be described thus: Antiproliferative activity against human A549 cells assessed as inhibition of cell growth incubated for 72 hrs by MTT assay. The format is functional, cell-based. The conditions noted are these: A549, 72 h. In general terms: Tetrazolium assays rely on reduction of a dye to a coloured formazan, in cell work by metabolically active cells.
As to `Nc1ccccc1NC(=O)c1ccc(COc2ccc(CNC(=O)[C@H]3CCC(=O)N3Cc3ccccc3)cc2)cc1`, the IC50 worked out at 3900 nM.

The test system of a further test is SF-268. The test can be described thus: Antiproliferative activity against human SF-268 cells assessed as inhibition of cell growth incubated for 72 hrs by MTT assay. The test is classed as functional, cell-based. Particulars: SF-268, 72 h.
In the case of `Nc1ccccc1NC(=O)c1ccc(COc2ccc(CNC(=O)[C@H]3CCC(=O)N3Cc3ccccc3)cc2)cc1`, the IC50 worked out at 3400 nM.

The test system of the next test is Caco-2. Briefly: Antiproliferative activity against human Caco-2 cells assessed as inhibition of cell growth incubated for 72 hrs by MTT assay. The conditions noted are these: Caco-2, 72 h. The test is classed as functional, cell-based.
Regarding `Nc1ccccc1NC(=O)c1ccc(COc2ccc(CNC(=O)[C@H]3CCC(=O)N3Cc3ccccc3)cc2)cc1`, the IC50 is 1900 nM.

The next test addresses T3, Class 1 histone deacetylase (Homo sapiens) (UniProt Q13547+O15379+Q92769+Q9BY41). The test can be described thus: Inhibition of class I HDAC in human A549 cells assessed as increase in histone H3 acetylation at 5 uM incubated for 48 hrs by immunoblot analysis.
Settings: not given
The format is cell-based.
Turning to `Nc1ccccc1NC(=O)c1ccc(COc2ccc(CNC(=O)[C@H]3CCC(=O)N3Cc3ccccc3)cc2)cc1`, the inhibition result was “Active”.

The next test concerns the target T4, Protein deacetylase HDAC6 (Homo sapiens) (UniProt Q9UBN7).
T4 sequence (whole entry): T1 sequence (Q9UBN7 whole entry)
Briefly: Inhibition of HDAC6 in human A549 cells assessed as increase in acetylated alpha-tubulin level at 5 uM incubated for 48 hrs by immunoblot analysis. The format is cell-based.
Settings: not given
Consider `Nc1ccccc1NC(=O)c1ccc(COc2ccc(CNC(=O)[C@H]3CCC(=O)N3Cc3ccccc3)cc2)cc1`, for which the inhibition entry is “inactive”.

In a further test the target is T3, Class 1 histone deacetylase (Homo sapiens). The test can be described thus: Inhibition of class I HDAC in human A549 cells assessed as downregulation of EGFR gene expression at 5 uM incubated for 48 hrs by qRT-PCR analysis. The format is cell-based.
Settings: not given
`Nc1ccccc1NC(=O)c1ccc(COc2ccc(CNC(=O)[C@H]3CCC(=O)N3Cc3ccccc3)cc2)cc1`: the inhibition result is “Active”.

The target is the same in the next test. Briefly: Inhibition of class I HDAC in human A549 cells assessed as downregulation of ERBB2 gene expression at 5 uM incubated for 48 hrs by qRT-PCR analysis. The test is classed as cell-based.
Settings: not given
On to `Nc1ccccc1NC(=O)c1ccc(COc2ccc(CNC(=O)[C@H]3CCC(=O)N3Cc3ccccc3)cc2)cc1`, for which the inhibition result was “inactive”.

Another test shares this target. Briefly: Inhibition of class I HDAC in human A549 cells assessed as downregulation of STAT3 gene expression at 5 uM incubated for 48 hrs by qRT-PCR analysis. The test is classed as cell-based.
Settings: not given
A general note: Real-time PCR tracks product formation cycle by cycle.
For `Nc1ccccc1NC(=O)c1ccc(COc2ccc(CNC(=O)[C@H]3CCC(=O)N3Cc3ccccc3)cc2)cc1`, the inhibition entry is “inactive”.

The target is the same in another test. The test can be described thus: Inhibition of class I HDAC in human A549 cells assessed as downregulation of MYC gene expression at 5 uM incubated for 48 hrs by qRT-PCR analysis. The test is classed as cell-based.
Settings: not given
In the case of `Nc1ccccc1NC(=O)c1ccc(COc2ccc(CNC(=O)[C@H]3CCC(=O)N3Cc3ccccc3)cc2)cc1`, the inhibition entry is “inactive”.

Another test has the same target. Briefly: Inhibition of class I HDAC in human A549 cells assessed as downregulation of EGFR protein expression at 5 uM incubated for 48 hrs by western blot analysis. The test is classed as cell-based.
Settings: not given
For orientation: A western blot detects proteins with antibodies after separation by electrophoresis.
Consider `Nc1ccccc1NC(=O)c1ccc(COc2ccc(CNC(=O)[C@H]3CCC(=O)N3Cc3ccccc3)cc2)cc1`, for which the inhibition entry was “Active”.

For orientation: IC50 means the concentration that inhibits the measured activity by half.
